Assay results published in patent US20260130928A1, “COMBINATION OF AKR1C3 ACTIVATED ANTICANCER PRODRUG COMPOUND AND ANALGESIC DRUG FOR TREATING CANCER PATIENTS ACCOMPANIED BY PAIN” (ASCENTAWITS PHARMACEUTICALS, LTD., priority 2022, published 2026).

Assays:
H460 cell line [1] = assay: In vitro cell proliferation inhibition with the drug combination (CTG method); format: cell-based, human; conditions: for IC50: Homo sapiens
Protocol: • a) H460 cells (human non-small lung cancer cells, AKR1C3 enzyme highly expressed) were cultured in RPMI-1640 medium, added with 10% FBS and 1% double antibody, and placed at 37° C. and 5% CO2 for culturing.
• a) The cells were routinely cultured until the cell saturation was 80%-90%, and when the required quantity was reached, the cells were collected. • b) The cells were resuspended with the corresponding medium and cell counts were performed to prepare a cell suspension with appropriate density. • c) The cell suspension was added to a 96-well plate with 100 μL per well, and the cell density was 2,000 cells per well. • d) The cells were incubated overnight in an incubator at 37° C. with 5% CO2. 1.1.3 Treating Cells with Compound (72 Hours)
AST-3424 alone: after 24 hours of cell seeding, AST-3424 was administered alone. Specifically, each well was supplemented with 99 μL of growth medium, and then added with 1 μL of the prepared AST-3424 solution to form different concentrations of AST-3424. The plate was shaken gently to ensure uniform mixing, and placed in an incubator at 37° C. with 5% CO2.
The cell plates were placed in the incubator for 72 hours.
1.1.4 Treating Cells with Compound (2 Hours) • a) Administrating single drug: after 24 hours of cell seeding, AST-3424 was administered alone. Specifically, each well was supplemented with 99 μL of growth medium, and then added with 1 μL of the prepared AST-3424 solution to form different concentrations of AST-3424. The plate was shaken gently to ensure uniform mixing, and placed in the incubator for 2 hours. […] The plate was shaken gently to ensure uniform mixing. After the plate was placed in the incubator for 2 hours, 1 μL of the prepared AST-3424 solution was added to form different concentrations of AST-3424. The plate was shaken gently to ensure uniform mixing, and placed in the incubator at 37° C. with 5% CO2 for another 2 hours. Then, the supernatant was discarded, and the remainder was washed twice with growth medium and added with 200 μL of fresh medium.
1.1.6 Detecting with CTG Method • a) The cell plate to be tested was placed at room temperature to equilibrium for 30 minutes, and 100 μL of culture medium was discarded from each well. • b) 25 μL CTG reagent (CelltiterGlo kit) was added to each well. The plate was placed on a fast shaker to shake for 2 minutes, and then placed at room temperature away from light for 30 minutes. • c) The chemiluminescent signal value was read with multifunctional microplate reader at reading time of 1000 ms.
IC50 was calculated with GraphPad Prism 5 software, and the IC50 (half maximal inhibitory concentration) of the compound was obtained using the following nonlinear fitting formula: […]

H460 cell line [2] = assay: Cell proliferation inhibition by combining Naproxen or TH-3021 and AST-3424 in different sequence of administration (CTG); format: cell-based, human; conditions: Homo sapiens, AST-3424 alone 2 h as reference, H460
Protocol: The following are the different treatment methods. […] The plate was shaken gently to ensure uniform mixing, and placed in the incubator for 2 hours. […] The plate was shaken gently to ensure uniform mixing, and placed in the incubator for 2 hours. Subsequently, the plate was washed to remove the compound, and placed in the incubator at 37° C. with 5% CO2 for further 72 hours. […] The plate was shaken gently to ensure uniform mixing, and placed in the incubator for 2 hours. Subsequently, the plate was washed to remove the compounds, and placed in the incubator at 37° C. with 5% CO2 for 72 hours. […] The plate was shaken gently to ensure uniform mixing, and placed in the incubator for 2 hours. […] The plate was shaken gently to ensure uniform mixing, and placed in the incubator for 2 hours. Subsequently, the plate was washed to remove the compounds, and placed in the incubator at 37° C. with 5% CO2 for further 72 hours. […] The plate was shaken gently to ensure uniform mixing, and placed in the incubator for 2 hours. […] The plate was shaken gently to ensure uniform mixing, and placed in the incubator for 2 hours. Subsequently, the plate was washed to remove the compounds, and placed in the incubator at 37° C. with 5% CO2 for further 72 hours. b) Administrating single drug: after 24 hours of cell seeding, the compound was administered alone. […] The plate was shaken gently to ensure uniform mixing, and placed in the incubator at 37° C. with 5% CO2 for 2 hours. Subsequently, the compound was washed off, and each well was added with fresh medium. The plate was placed in the incubator at 37° C. with 5% CO2 for further 72 hours.

[3] = system: human lung cancer NCI-H460; assay: Pharmacodynamics in subcutaneous xenograft model of human lung cancer NCI-H460 (tumor volume, TGI); format: in vivo, BALB/c nude mice; conditions: Group 7: AST-3424 2.5 mg/kg QW×3 i.v.
Protocol: Measures of pharmacodynamics of AST-3424 monotherapy and combination therapy with Celecoxib were performed in a subcutaneous xenograft model of human lung cancer NCI-H460 established by using female BALB/c nude mice.
After the inoculation of tumor cell, tumor growth was routinely monitored, and tumor volume and mouse weight were measured. Evaluation of therapeutic efficiency was based on the relative tumor growth inhibition TGI (%). The specific results are shown in Table 3 and FIG. 3, and the Pharmacodynamics analysis data on Day 30 after inoculation (at the end of drug administration) are particularly given in Table 4.

[4] = Body weight / tolerance of mice in the human lung cancer NCI-H460 model
Protocol: BALB/c nude mice were subcutaneously inoculated with human lung cancer NCI-H460 cells to establish the subcutaneous transplant tumor model of human lung cancer. The experiment was assigned to seven groups, with 5 mice in each group: the test drug Celecoxib 50 mg/kg and 100 mg/kg groups, the AST-3424 2.5 mg/kg group, and different combination therapy groups of Celecoxib 50 mg/kg or 100 mg/kg and AST-3424 2.5 mg/kg, and the 0.5% sodium carboxymethylcellulose vehicle control group. […] The AST-3424 2.5 mg/kg group was administered by tail vein injection once a week for a total of three weeks, and observed for 7 days. In the combination therapy groups of Celecoxib 50 mg/kg or 100 mg/kg and AST-3424 2.5 mg/kg, Celecoxib was administered by gavage once a day for a total of 15 days, and AST-3424 was administered by tail vein injection once a week for a total of three weeks, and observed for 7 days.

[5] = Group 7: AST-3424 2.5 mg/kg QW×3 i.v., Day 37 after the inoculation of tumor cell

C[C@H](OP(=O)(N1CC1)N1CC1)c1ccc([N+](=O)[O-])c(Oc2cccc(C(=O)N(C)C)c2)c1 [AST-3424] gave an IC50 (H460 cell line [1]; NCI-H460, AST-3424 alone, read-out: IC50(nM) -TH-3021) of 0.97 nM, an IC50 (H460 cell line [1]; NCI-H460, read-out: IC50(nM) +3 μM TH-3021, +3 μM TH-3021 (2 h pre-incubation, then 2 h with AST-3424)) of 360 nM and an Inhibition factor (H460 cell line [1]; IC50 +3 μM TH-3021 vs AST-3424 alone) of 371.65. For the same molecule, the IC50 (H460 cell line [2]; NCI-H460, 2 h, Group 2: TH-3021 3 μM or Naproxen 400 μM + AST-3424 2 h simultaneously) was 1.08 nM, the IC50 (H460 cell line [2]; NCI-H460, Group 1: TH-3021 3 μM or Naproxen 400 μM 2 h pretreatment, washed off, then AST-3424 2 h) was 0.88 nM and the IC50 (H460 cell line [2]; NCI-H460, Group 3: AST-3424 2 h pretreatment, washed off, then TH-3021 3 μM or Naproxen 400 μM 2 h) was 1 nM. The IC50 (H460 cell line [2]; NCI-H460, Group 4: TH-3021 3 μM or Naproxen 400 μM 2 h pretreatment, not washed off, AST-3424 2 h cotreatment) was 1.14 nM, the “Tumor volume (x ± S)” value ([3]; Day 9 after cell inoculation) was 144.01 ± 11.36 mm^3 and the “Tumor volume (x ± S)” value ([3]; Day 12 after cell inoculation) was 164.28 ± 17.97 mm^3. The “Tumor volume (x ± S)” value ([3]; Day 16 after cell inoculation) was 166.22 ± 18.81 mm^3, the “Tumor volume (x ± S)” value ([3]; Day 19 after cell inoculation) was 209.80 ± 41.43 mm^3 and the “Tumor volume (x ± S)” value ([3]; Day 23 after cell inoculation) was 208.60 ± 43.27 mm^3. For the same molecule, the “Tumor volume (x ± S)” value ([3]; Day 26 after cell inoculation) was 291.82 ± 67.06 mm^3, the “Tumor volume (x ± S)” value ([3]; Day 30 after cell inoculation) was 327.47 ± 85.10 mm^3 and the “Relative tumor volume (x ± S)” value ([3]; Day 30 after inoculation) was 2.19 ± 0.41. The “T/C (%)” value ([3]; Day 30 after inoculation) was 39.25%, the “TGI (%)” value ([3]; Day 30 after inoculation, 2.5 mg/kg) was 60.75% and the “Tumor volume (x ± S)” value ([3]; Day 30 after inoculation, in mm³) was 327.47 ± 85.10. For the same molecule, the “Tumor volume (x ± S)” value ([3]; Day 33 after cell inoculation) was 348.83 ± 90.34 mm^3, the “Tumor volume (x ± S)” value ([3]; Day 37 after cell inoculation) was 439.52 ± 142.78 mm^3 and the “Mean body weight g (x ± S)” value ([4]; Group 7: AST-3424 2.5 mg/kg QW×3 i.v., Day 9 after the inoculation of tumor cell) was 25.6 ± 0.7 g. The “Change of body weight (%)” value [4, 5] was −11.74%, the “Mean body weight g (x ± S)” value [4, 5] was 22.5 ± 0.5 g and the tolerance of mice ([4]; NCI-H460 model) was “good tolerance”.
